# Source: patent US8114885B2, “Chemical compounds” (GlaxoSmithKline LLC, priority 2000, dated 2012)
# Counter-ions that a name gives are not always drawn.
# System: HUVEC
# Assay: Human Umbilical Vein Endothelial Cell (HUVEC) proliferation assay (BrdU incorporation)
# Type: cell-based
# Settings: VEGF-stimulated HUVEC, 72 hrs, read-out: Inhibition of HUVEC proliferation IC50
# Procedure: Human Umbilical Vein Endothelial Cell (HUVEC) Proliferation Assay (BrdU Incorporation) Materials
# HUVEC cells and EGM-MV (Endothelial cell growth medium—microvascular) were purchased from Clonetics (San Diego, Calif.). VEGF and bFGF were purchased from R&D Systems (Minneapolis, Minn.). Anti-BrdU antibody was obtained from Chemicon International (Temecula, Calif.).
# HUVECs were routinely maintained in EGM-MV medium and were used within passage 7. HUVECs were plated at a density of 2500 cells/well in M199 medium containing 5% FBS (Hyclone) in type I collagen coated plate (Becton Dickinson). The plate was incubated at 37° C. overnight. The medium was removed by aspiration, and test compounds were added to each well in a volume of 0.1 ml/well in serum-free M199 medium. Compound concentrations ranged from 1.5 nM to 30 micromolar. The plate was incubated for 30 min at 37° C. Another 0.1 ml of serum-free M199 medium containing BSA and VEGF (or bFGF) was added to give a final concentration of 0.1% BSA and 10 ng/ml VEGF (0.3 ng/ml bFGF). The plate was incubated at 37° C. for 72 hrs. BrdU was added to each well after the first 48 hrs to give a concentration of 10 micromolar. The calorimetric ELISA assay was performed according to manufacturer's (Roche Molecular Sciences) instructions, with detection by absorbance reading at 450 nm. Results were plotted as concentration of test compound vs. absorbance to give an IC50 value for inhibition of BrdU incorporation.
row,Compound,IC50
1,"Cc1n[nH]c2cc(N(C)c3ccnc(Nc4cccc(S(=O)(=O)NC(C)C)c4)n3)ccc12 [Example 24, N-isopropyl-3-({4-[methyl(3-methyl-1H-indazol-6-yl)amino]-2-pyrimidinyl}amino)benzenesulfonamide]",1 to 200 nM
2,"CN(c1ccc2c(c1)nc(Cc1ccccc1)n2C)c1ccnc(Nc2cccc(S(N)(=O)=O)c2)n1 [Example 75, 3-({4-[(2-benzyl-1-methyl-1H-benzimidazol-5-yl)(methyl)amino]pyrimidin-2-yl}amino)benzenesulfonamide]",1 to 200 nM
3,"Cc1n[nH]c2cc(N(CC#N)c3ccnc(Nc4ccc(CS(C)(=O)=O)cc4)n3)ccc12 [Example 44, [(3-methyl-1H-indazol-6-yl)(2-{4-[(methylsulfonyl)methyl]anilino}-4-pyrimidinyl)amino]acetonitrile]",201 to 500 nM
4,"COc1ccc(S(N)(=O)=O)cc1Nc1nccc(N(C)c2ccc3c(C)n[nH]c3c2)n1 [Example 54, 4-methoxy-3-({4-[methyl(3-methyl-1H-indazol-6-yl)amino]-2-pyrimidinyl}amino)benzenesulfonamide]",1 to 200 nM
5,"Cc1n[nH]c2cc(N(C)c3ccnc(Nc4cccc(S(=O)(=O)NC5CC5)c4)n3)ccc12 [Example 25, N-cyclopropyl-3-({4-[methyl(3-methyl-1H-indazol-6-yl)amino]-2-pyrimidinyl}amino)benzenesulfonamide]",1 to 200 nM
6,"CCn1nc2cc(N(C)c3ccnc(Nc4cccc(S(N)(=O)=O)c4)n3)ccc2c1C [Example 76, 3-({4-[(2-ethyl-3-methyl-2H-indazol-6-yl)(methyl)amino]pyrimidin-2-yl}amino)benzenesulfonamide]",1 to 200 nM
7,"Cc1cc(S(N)(=O)=O)ccc1Nc1nccc(N(C)c2ccc3c(C)n[nH]c3c2)n1 [Example 63, 3-methyl-4-({4-[methyl(3-methyl-1H-indazol-6-yl)amino]-2-pyrimidinyl}amino)benzenesulfonamide]",201 to 500 nM
8,"CCS(=O)(=O)c1ccc(Nc2nccc(N(C)c3ccc4c(C)n[nH]c4c3)n2)cc1 [Example 57, N^2-[4-(ethylsulfonyl)phenyl]-N^4-methyl-N^4-(3-methyl-1H-indazol-6-yl)-2,4-pyrimidinediamine]",201 to 500 nM
9,"COc1ccc(C(N)=O)cc1Nc1ncc(F)c(N(C)c2ccc3c(C)n[nH]c3c2)n1 [Example 13, 3-({5-fluoro-4-[methyl(3-methyl-1H-indazol-6-yl)amino]-2-pyrimidinyl}amino)-4-methoxybenzamide]",201 to 500 nM
10,"COc1ccc(S(=O)(=O)C(C)C)cc1Nc1nccc(N(C)c2ccc3c(C)n[nH]c3c2)n1 [Example 35, N^2-[5-(isopropylsulfonyl)-2-methoxyphenyl]-N^4-methyl-N^4-(3-methyl-1H-indazol-6-yl)-2,4-pyrimidinediamine]",1 to 200 nM
11,"Cc1ccc(Nc2nccc(N(C)c3ccc4c(C)n(C)nc4c3)n2)cc1S(N)(=O)=O [Example 69, 5-({4-[(2,3-dimethyl-2H-indazol-6-yl)(methyl)amino]pyrimidin-2-yl}amino)-2-methylbenzenesulfonamide]",1 to 200 nM
12,C#CCN(c1ccc2c(C)n[nH]c2c1)c1ccnc(Nc2cccc(CS(C)(=O)=O)c2)n1 [Example 50],201 to 500 nM
13,"Cc1n[nH]c2cc(N(C)c3ccnc(Nc4cccc(S(N)(=O)=O)c4)n3)ccc12 [Example 21, 3-({4-[methyl(3-methyl-1H-indazol-6-yl)amino]-2-pyrimidinyl}amino)benzenesulfonamide hydrochloride]",1 to 200 nM
14,"Cc1n[nH]c2cc(N(C)c3ncnc(Nc4cccc(S(C)(=O)=O)c4)n3)ccc12 [Example 19, N^2-methyl-N^2-(3-methyl-1H-indazol-6-yl)-N^4-[3-(methylsulfonyl)phenyl]-1,3,5-triazine-2,4-diamine]",201 to 500 nM
15,"COc1cc(S(N)(=O)=O)ccc1Nc1nccc(N(C)c2ccc3c(C)n[nH]c3c2)n1 [Example 49, 3-methoxy-4-({4-[methyl(3-methyl-1H-indazol-6-yl)amino]-2-pyrimidinyl}amino)benzenesulfonamide]",1 to 200 nM
16,"Cc1c2ccc(N(C)c3ncnc(Nc4cccc(S(N)(=O)=O)c4)n3)cc2nn1C [Example 78, 3-({4-[(2,3-dimethyl-2H-indazol-6-yl)(methyl)amino]-1,3,5-triazin-2-yl}amino)benzenesulfonamide]",1 to 200 nM
17,"COc1ccc(S(=O)(=O)Nc2cccc(Nc3nccc(N(C)c4ccc5c(C)n[nH]c5c4)n3)c2)cc1 [Example 42, 4-methoxy-N-[3-({4-[methyl(3-methyl-1H-indazol-6-yl)amino]-2-pyrimidinyl}amino)phenyl]benzenesulfonamide]",201 to 500 nM

row,Compound,IC50
1,"CNS(=O)(=O)c1ccc(OC)c(Nc2nccc(Nc3ccc4c(C)n[nH]c4c3)n2)c1 [Example 43, 4-methoxy-N-methyl-3-({4-[(3-methyl-1H-indazol-6-yl)amino]-2-pyrimidinyl}amino)benzenesulfonamide]",201 to 500 nM
2,"CC(=O)Nc1ccc(Nc2ncnc(N(C)c3ccc4c(C)n[nH]c4c3)n2)cc1 [Example 20, N-[4-({4-[methyl(3-methyl-1H-indazol-6-yl)amino]-1,3,5-triazin-2-yl}amino)phenyl]acetamide hydrochloride]",> 1000 nM
3,"CCS(=O)(=O)NCc1ccc(Nc2nccc(N(C)c3ccc4c(C)n[nH]c4c3)n2)cc1 [Example 58, N-[4-({4-[methyl(3-methyl-1H-indazol-6-yl)amino]-2-pyrimidinyl}amino)benzyl]ethanesulfonamide]",1 to 200 nM
4,"Cc1nc2cc(N(C)c3ccnc(Nc4cccc(S(N)(=O)=O)c4)n3)ccc2n1C [Example 74, 3-({4-[(1,2-dimethyl-1H-benzimidazol-5-yl)(methyl)amino]pyrimidin-2-yl}amino)benzenesulfonamide]",1 to 200 nM
5,"Cc1n[nH]c2cc(N(C)c3ccnc(Nc4cc(S(N)(=O)=O)ccc4Cl)n3)ccc12 [Example 62, 4-chloro-3-({4-[methyl(3-methyl-1H-indazol-6-yl)amino]-2-pyrimidinyl}amino)benzenesulfonamide]",1 to 200 nM
6,"CCS(=O)(=O)c1ccc(OC)c(Nc2nccc(N(C)c3ccc4c(C)n[nH]c4c3)n2)c1 [Example 22, N^2-[5-(ethylsulfonyl)-2-methoxyphenyl]-N^4-methyl-N^4-(3-methyl-1H-indazol-6-yl)-2,4-pyrimidinediamine]",1 to 200 nM
7,"Cc1ccc(Nc2ncnc(N(C)c3ccc4c(C)n(C)nc4c3)n2)cc1S(N)(=O)=O [Example 79, 5-({4-[(2,3-dimethyl-2H-indazol-6-yl)(methyl)amino]-1,3,5-triazin-2-yl}amino)-2-methylbenzenesulfonamide]",201 to 500 nM
8,"CCN(c1ccc2c(C)n[nH]c2c1)c1ccnc(Nc2cccc(NC(C)=O)c2)n1 [Example 32, N-[3-({4-[ethyl(3-methyl-1H-indazol-6-yl)amino]-2-pyrimidinyl}amino)phenyl]acetamide]",1 to 200 nM
9,"Cc1n[nH]c2cc(N(C)c3nc(Nc4cccc(CS(=O)(=O)C(C)C)c4)ncc3F)ccc12 [Example 12, 5-fluoro-N^2-{3-[(isopropylsulfonyl)methyl]phenyl}-N^4-methyl-N^4-(3-methyl-1H-indazol-6-yl)-2,4-pyrimidinediamine]",1 to 200 nM
10,"CNS(=O)(=O)Cc1ccc(Nc2ncc(F)c(N(C)c3ccc4c(C)n[nH]c4c3)n2)cc1 [Example 11, [4-({5-fluoro-4-[methyl(3-methyl-1H-indazol-6-yl)amino]-2-pyrimidinyl}amino)phenyl]-N-methylmethanesulfonamide]",201 to 500 nM
11,"Cc1n[nH]c2cc(N(C)c3ccnc(Nc4cccc(CNS(C)(=O)=O)c4)n3)ccc12 [Example 59, N-[3-({4-[methyl (3-methyl-1H-indazol-6-yl)amino]-2-pyrimidinyl}amino)benzyl]methanesulfonamide]",1 to 200 nM
12,"CCN(c1ccc2c(C)n[nH]c2c1)c1ccnc(Nc2cc(S(=O)(=O)CC)ccc2OC)n1 [Example 26, N^4-ethyl-N^2-[5-(ethylsulfonyl)-2-methoxyphenyl]-N^4-(3-methyl-1H-indazol-6-yl)-2,4-pyrimidinediamine]",201 to 500 nM
13,"Cc1n[nH]c2cc(N(C)c3ccnc(Nc4ccc(S(N)(=O)=O)c(Cl)c4)n3)ccc12 [Example 61, 2-chloro-4-({4-[methyl(3-methyl-1H-indazol-6-yl)amino]-2-pyrimidinyl}amino)benzenesulfonamide]",201 to 500 nM
14,"Cc1n[nH]c2cc(N(C)c3ccnc(Nc4cccc(CS(C)(=O)=O)c4)n3)ccc12 [Example 23, N^4-methyl-N^4-(3-methyl-1H-indazol-6-yl)-N^2-{3-[(methylsulfonyl)methyl]phenyl}-2,4-pyrimidinediamine]",1 to 200 nM
15,"Cc1ccc(S(N)(=O)=O)cc1Nc1nccc(N(C)c2ccc3c(C)n[nH]c3c2)n1 [Example 65, 4-methyl-3-({4-[methyl(3-methyl-1H-indazol-6-yl)amino]-2-pyrimidinyl}amino)benzenesulfonamide]",1 to 200 nM
16,"Cc1n[nH]c2cc(N(C)c3ccnc(Nc4cccc(NS(C)(=O)=O)c4)n3)ccc12 [Example 27, N-[3-({4-[methyl(3-methyl-1H-indazol-6-yl)amino]-2-pyrimidinyl}amino)phenyl]methanesulfonamide]",1 to 200 nM
